Data reported in ChEMBL document CHEMBL1208781, “Identification of N-(2-(azepan-1-yl)-2-phenylethyl)-benzenesulfonamides as novel inhibitors of GlyT1” (Bioorg Med Chem Lett, 2010).

Key:
Type in all cases: ADME, organism-based
Brain = experiment: Drug level in Sprague-Dawley rat brain at 2.5 umol/kg, sc after 1 hr; settings: in vivo
[1] = Plasma concentration in Sprague-Dawley rat at 2.5 umol/kg, sc after 1 hr; settings: read-out: Drug uptake
[2] = Drug level in brain to plasma in Sprague-Dawley rat at 2.5 umol/kg, sc after 1 hr

Row | Drug uptake (Brain) [nmol/kg] | concentration at 1 h [1] [nM] | Kp at 1 h [2] | Compound
1 | 202 | 103 | 1.9 | COc1ccccc1C(CNS(=O)(=O)c1ccc(Cl)cc1)N1CCCCCC1 (centres undefined)
2 | 168 | 105 | 1.6 | COc1ccccc1C(CNS(=O)(=O)c1ccc(F)c(Cl)c1)N1CCCCCC1 (centres undefined)
3 | 154 | 72 | 2.1 | COc1ccccc1C(CNS(=O)(=O)c1ccc(C(F)(F)F)cc1)N1CCCCCC1 (centres undefined)
